# Reference: patent publication EP1355153A1, “Screening method for agents against cardiovascular diseases” (NAMAXX GENOMICS GMBH, priority 2002, dated 2003)
# Tested on: heart of the chick embryo
# Test: Relative stroke volume of the chick embryo heart by video microscopy (decrease by isoproterenol, rescue by metoprolol)
# Type: in vivo, chicken
# Settings: for % remaining stroke volume: 50 µL isoproterenol 1 mM topically, followed by 20 µL metoprolol 15 mM or water-dimethylsulfoxide mix (isoproterenol alone), after 2 minutes at 22°C; for reduction of the stroke volume: isoproterenol alone or applied with metoprolol
# Protocol: Fertilized Bovans Goldline brown chicken eggs (12 hrs after laying, kept at 18°C) were incubated at 38°C and 45 % humidity during 72 hrs (Motorbruter 126-EM, Bruja). The eggshell was then broken and the egg white, the yolk and the embryo were removed and placed in a Petri dish (Greiner, 9.4 cm diameter). This Petri dish was placed in a bigger Petri dish (Greiner, 14 cm diameter) containing water and an incubation is performed at 38°C and 45 % humidity for 24 hrs or 48 hrs. The relative stroke volume of the heart of the chick embryo was then estimated by video microscopy using a binocular (SZX-ZB9, Olympus), a CCD camera (F-View, Soft Imaging Systems) and an image analysis software (AnalySIS Auto Software, Soft Imaging Systems). The beating heart of the embryo was filmed and the grey density of the heart area under systole was subtracted from the density of the heart area under diastole. By performing said subtraction, the so-called "relative stroke volume" is obtained, which represents a relative value instead of a volume.
# 50 µL of a isoproterenol (Sigma) solution (1mM, water) was then topically applied on the surface of the embryo, followed by 20 µL metoprolol (Sigma) solution (15 mM, Vol-90 % water, 10 % dimethylsulfoxide). Metoprolol is a marketed drug for human use against heart failure (M. Andrejak and M. Slama, Presse Med. 27:2025-30 (1998)). After 2 minutes at 22°C, the heart was monitored and the relative stroke volume was measured. The same experiment was performed by replacing the metoprolol solution by a water-dimethylsulfoxide mix (90 %-10 %) in order to investigate the effect of isoproterenol alone. Controls were performed with untreated embryos. The test groups of the 96 hrs old embryos (Table 1) comprise seven embryos each, while the test groups of the 120 hrs old embryos (Table 2) comprise five embryos each.
# [1] = 96 hrs old embryos, after 2 minutes
# [2] = 120 hrs old embryos, after 2 minutes incubation
SMILES,% remaining stroke volume (96 hrs old embryos (n=7)),reduction of the stroke volume [1] [%],% remaining stroke volume (120 hrs old embryos (n=5)),reduction of the stroke volume [2] [%]
COCCc1ccc(OCC(O)CNC(C)C)cc1 (centres unmarked) [metoprolol],"57,0%",43,"58,8%",41
"CC(C)NCC(O)c1ccc(O)c(O)c1 (centres unmarked) [Isoproterenol, isoproterenol]","25,5%",75,"27,2%",72
